Results reported in patent US8710064B2, “2-aryl-4-quinazolinones and their pharmaceutical compositions” (China Medical University, priority 2011, dated 2014).

Columns and labels:
C6 glioma cells [1] = test: cell cycle assay by flow cytometry with propidium iodide; assay type: cell-based, rat; conditions: 60 nM
Description: To analyze cellular DNA content by flow cytometry, 3×10^5 cells were seeded in 10 cm dish and incubated for 24 hours at 37° C. […] At indicated time points (0, 6, 12, 24 and 48 hr), over 10^6 cells were suspended with 0.05% trypsin-EDTA, and fixed in 70% ethanol over 1 hour at −20° C. After washed by phosphate-buffered saline (PBS) twice, cells were then suspended with 1 ml propidium iodide/Triton-X 100 staining solution (20 μg/ml PI, 0.1% Triton-X 100 and 0.2 mg/ml ribonuclease A (RNase A, Sigma) in PBS) and incubated for 30 minutes at room temperature in the dark. After filtered by 35 μm nylon mesh (Falcon, 352235), the DNA content was then analyzed by flow cytometry (FACS can, BD Bioscience). The cell-cycle distribution (subG1, G1, S, G2/M, and >4N DNA content) of ten thousand cells was analyzed by WinMDI software.
To investigate the cell cycle distribution of MJ-66-treated glioma cell, C6 glioma cells were treated with 60 nM MJ-66 for 0, 6, 12, 24, 36 and 48 hours, and the cell cycle distributions of the percentages of cells at subG1, G1, S and G2/M phases and DNA content of cells were monitored by flow cytometry with propidium iodide staining.

C6 glioma cells [2] = test: G1 synchronized by Ara-C, flow cytometry; assay type: cell-based, rat; conditions: 60 nM MJ-66 after 41.6 nM Ara-C 12 hours; at 12th and 24th hours
Description: At indicated time points (0, 6, 12 and 24 hr), >10^6 cells were collected and fixed in 70% ethanol over 1 hour at −20° C. After staining with PI as described, DNA content of ten thousand cells was analyzed by flow cytometry.
To investigate the influence of MJ-66 on normal glia such as human glia cell line SVGP12 and rat primary glia cells, cells were treated with different concentrations of MJ-66 in vitro (0.00625, 0.0125, 0.025, 0.05, 0.1 and 1 μM) for different time durations (0, 6, 12 and 24 hours) and the cell viability was assessed by MTS assay. Cells alone or treated with DMSO were used as control. […] However, most glia cells in animals are static and their proliferation rate is almost silent. Therefore, cytosine arabinoside (Ara-C), a DNA synthesis inhibitor, was further used to inhibit glioma cell proliferation and glioma cells were then treated with MJ-66 or DMSO as described in “General materials and methods”. Specifically, after C6 glioma cells were treated with 41.6 nM Ara-C for 12 hours, and then treated with solvent (DMSO) or 60 nM MJ-66 for 0, 6, 12 and 24 hours, the cell cycle distributions and DNA content of the cells were monitored by flow cytometry with propidium iodide staining C6 glioma cells treated with 41.6 nM Ara-C for 12 hours (12 hr) were detected by flow cytometry with propidium iodide staining as control.

[3] = test system: U87 human glioma xenograft; test: in vivo xenograft animal model; design: species or system nude mice; conditions: 1.36 microgram/kg intra-tumor every 2 days for 10 times, after 40 days
Description: For tumorigenesis, U87 glioma cells (1×10^6 cells per 100 μl PBS) were inoculated subcutaneously into the right flank of 8-to-10-week-old male nude mice (BALB/cAnN-Foxnlnu/CrlNarl mice, National Laboratory Animal Center, Taiwan). Tumor growth was measured every three days. Tumor volume was calculated by volume (mm^3)=[…] (Zhou, Y. H., Wu, X., Tan, F., Shi, Y. X., Glass, T., Liu, T. J., Wathen, K., Hess, K. R., Gumin, J, Lang, F., et al. (2005). PAX6 suppresses growth of human glioblastoma cells. J Neurooncol 71, 223-229). When the tumors reached a mean volume of 50 to 70 mm^3, MJ-66 (1.36 microgram/kg in saline) or vehicle (DMSO or saline) was injected intratumor once per two days during 20 days.
Since MJ-66 was able to effectively cause glioma to undergo mitotic catastrophe in vitro, whether MJ-66 could inhibit tumor growth in vivo was further examined by U87 human glioma xenograft animal model. Approximately 1×10^6 U87 glioma cells were injected subcutaneously into the nude mice and when tumors size reached 50 to 200 mm^3 in volume, MJ-66 (1.36 microgram/kg in saline) or vehicle (DMSO or saline denoted respectively as DMSO and Control) was administered by intra-tumor every 2 days for 10 times and tumor volume was measured for 50 days. Tumor growth was observed every three days.

U87 glioma cells = test: trypan blue exclusion cell death assay, U87 glioma cells; assay type: cell-based, human; conditions: 60 nM, at the 48th hour, p<0.05 versus control
Description: Cell viability was also determined by trypan-blue exclusion assay. Cells were seeded in 6-well plates (2×10^4/well) for trypan blue exclusion assay, and incubated for 24 hours at 37° C. Culture medium containing test compound or DMSO (0.006%) was added to each well, and cells were incubated at 37° C. At indicated time points (0, 24, 48, 72 and 96 hr), cells were suspended with 0.05% trypsin-EDTA, and stained with trypan-blue dye (0.4%) (Sigma). The cell viability was evaluated by the percentage of death relative to the total cell, and cell growth curve was determined by number of live cells relative to the total number of cells.
To investigate the glioma cell death induced by MJ-66, cell viability was assessed by trypan blue exclusion assay. C6 and U87 glioma cells treated with MJ-66 (30, 60, 90 nM) or DMSO (0.009%) for 0, 24, 48, 72 and 96 hours (hr) were observed under bright field microscope (FIG. 4A). The percentages of cell death and cell growth curve were determined by trypan blue assay followed by cell counting (mean±SEM, n=3). Relative to total cell number, trypan blue positive cells were defined as dead cells.

HT29-5FUR cells = test: MTT cell viability assay, HT29-5FUR cells; assay type: cell-based, human; conditions: 25, 50, 100 and 200 nM for 24 and 48 hours
Description: HT29-5FUR cell line (human colon adenocarcinoma) provided by Dr. Jai-Sing Yang (China Medical University, Taiwan) was cultured in RPMI-1640 medium (Invitrogen, Carlsbad, Calif., USA) supplemented with 10% fetal bovine serum, 2 mM L-glutamine, 100 U/ml penicillin, and 100 μg/ml streptomycin.
Cells (1×10^4 cells/well) in 96-well plates were exposed to test MJ-66, and 0.1% DMSO in media served as a vehicle control. After 24 and 48 hr-incubations, […] MTT (0.5 mg/mL) solution was added to each well, the plate was incubated at 37° C. for 4 hours. Then, […] 0.04 N HCl in isopropanol was added and the absorbance at 570 nm was measured for each well. The cell survival rate was expressed as % of control. All results were performed from three independent experiments.
The growth inhibition effects of MJ-66 on HT29-5FUR cells were investigated. For cell viability assay, HT29-5FUR cells were cultured and treated with 0, 25, 50, 100 and 200 nM MJ-66 and the percentages of viable cells were detected by MTT assay described in “General materials and methods”.

## O=c1[nH]c(-c2cccc3ccccc23)nc2ccc(N3CCCC3)cc12 [Compound 23, 6-(Pyrrolidin-1-yl)-2-(naphthalen-1-yl)quinazolin-4-one]
C6 glioma cells [1]; after 6 and 12 hours
  G2/M cell population: significantly increased
C6 glioma cells [1]; after 24, 36 and 48 hours, time-dependent
  sub G1 and >4N DNA content cell population: increased
C6 glioma cells [2]
  cell death of G1 arrest (Ara-C-treated) glioma cells: not induced cell death
[3]
  tumor growth: significantly inhibited
[3]; N=8, p<0.01
  tumor volume: 435.1 mm^3
U87 glioma cells
  percentage of dead cells, U87: significantly induced
HT29-5FUR cells
  cell number of HT29-5FUR relative to control: dose-dependent decreases
